Source: publication PMC7588595, “Small-molecule active pharmaceutical ingredients of approved cancer therapeutics inhibit human aspartate/asparagine-β-hydroxylase” (Bioorganic & Medicinal Chemistry, 2020)
Structures can show the parent of a compound that is named as a salt. Where two headings read alike, the source gives them in different places.

Molecular target: T1, human AspH (His6-AspH315–758) (Homo sapiens, UniProt Q12797)
T1 construct: N-Terminally His6-tagged human AspH315–758 (His6-AspH315–758) was produced in Escherichia coli BL21 (DE3) cells; made in house; host or cells: Escherichia coli BL21 (DE3), pET-28a(+) vector
T1 sequence (Q12797 315-758): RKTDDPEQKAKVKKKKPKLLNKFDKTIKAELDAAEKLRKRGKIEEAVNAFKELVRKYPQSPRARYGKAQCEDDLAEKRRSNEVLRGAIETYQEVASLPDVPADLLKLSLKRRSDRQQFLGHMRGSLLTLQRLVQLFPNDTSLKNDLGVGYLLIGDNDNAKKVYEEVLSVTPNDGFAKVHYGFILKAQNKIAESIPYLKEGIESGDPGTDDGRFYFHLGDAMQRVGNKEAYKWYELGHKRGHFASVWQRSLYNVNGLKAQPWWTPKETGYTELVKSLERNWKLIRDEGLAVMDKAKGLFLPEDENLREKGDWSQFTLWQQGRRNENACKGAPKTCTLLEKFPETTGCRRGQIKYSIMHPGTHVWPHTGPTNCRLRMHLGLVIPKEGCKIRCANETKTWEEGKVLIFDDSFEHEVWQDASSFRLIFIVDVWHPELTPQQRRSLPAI
Assay: SPE-MS AspH inhibition assay (hFX-CP101-119 substrate hydroxylation)
Assay type: biochemical

[1] = AspH-inhibitor screening, 384-well Plate 1
[2] = AspH-inhibitor screening, 384-well Plate 1, substrate conversion
[3] = AspH-inhibitor screening, Plate 1-duplicate
[4] = AspH-inhibitor screening, Plate 1-duplicate, substrate conversion

| SMILES | Plate 1 (% inhibition) [1] | Plate 1 (% conversion) [2] | Plate 1-duplicate (% inhibition) [3] | Plate 1-duplicate (% conversion) [4] | Plate 1 (% conversion) | Plate 1-duplicate (% conversion) | Plate 1 (% inhibition) | Plate 1-duplicate (% inhibition) |
| --- | --- | --- | --- | --- | --- | --- | --- | --- |
| CO[C@H]1C[C@@H]2CC[C@@H](C)[C@@](O)(O2)C(=O)C(=O)N2CCCC[C@H]2C(=O)O[C@H]([C@H](C)C[C@@H]2CC[C@@H](OP(C)(C)=O)[C@H](OC)C2)CC(=O)[C@H](C)/C=C(\C)[C@@H](O)[C@@H](OC)C(=O)[C@H](C)C[C@H](C)/C=C/C=C/C=C/1C [Ridaforolimus] | 16.02% | 42.35% | 8.84% | 47.66% | – | – | – | – |
| CS(=O)(=O)c1ccc(C2=C(c3ccccc3)C(=O)OC2)cc1 [Rofecoxib (Vioxx)] | 0.07% | 49.72% | 2.99% | 50.56% | – | – | – | – |
| C/C=C1\NC(=O)[C@H]2CSSCC/C=C/[C@H](CC(=O)N[C@H](C(C)C)C(=O)N2)OC(=O)[C@H](C(C)C)NC1=O [Romidepsin] | 31.77% | 35.08% | 29.51% | 37.41% | – | – | – | – |
| CC[C@H](CO)Nc1nc(NCc2ccccc2)c2ncn(C(C)C)c2n1 [Roscovitine_Selicilib] | – | – | – | – | 48.67% | 50.17% | – | – |
| Cc1ccc(C(=O)N(CCCN)[C@@H](c2oc3cc(Cl)ccc3c(=O)c2Cc2ccccc2)C(C)C)cc1 [SB 743921] | -12.94% | 55.72% | -30.32% | 67.08% | – | – | – | – |
| CC(C)n1cnc2c(NCCc3ccc(O)cc3)nc(-c3csc4ccccc34)nc21.Cl [SR1 HCl] | 33.05% | 34.49% | 43.66% | 30.39% | – | – | – | – |
| CCC(C)(C)C(=O)O[C@H]1C[C@@H](C)C=C2C=C[C@H](C)[C@H](CC[C@@H]3C[C@@H](O)CC(=O)O3)[C@H]21 [Simvastatin] | -15.63% | 56.97% | -16.09% | 60.02% | – | – | – | – |
| CNC(=O)c1cc(Oc2ccc(NC(=O)Nc3ccc(Cl)c(C(F)(F)F)c3)cc2)ccn1 [Sorafenib] | 50.93% | 26.23% | 41.45% | 31.48% | – | – | – | – |
| CN1CCN(c2nc(C3=C(c4c[nH]c5ccccc45)C(=O)NC3=O)c3ccccc3n2)CC1 [Sotrastaurin] | 20.56% | 40.26% | 11.48% | 46.35% | – | – | – | – |
| O=[N+]([O-])c1ccc2c(c1)S(=O)(=O)C=C2 [Stattic] | 9.52% | 45.35% | 9.59% | 47.29% | – | – | – | – |
| CN(N=O)C(=O)N[C@@H](C=O)[C@@H](O)[C@H](O)[C@H](O)CO [Streptozocin] | 6.30% | 46.84% | 4.95% | 49.58% | – | – | – | – |
| CCN(CC)CCNC(=O)c1c(C)[nH]c(/C=C2\C(=O)Nc3ccc(F)cc32)c1C [Sunitinib] | -40.27% | 68.35% | -34.40% | 69.10% | – | – | – | – |
| Cn1c(=O)c(F)c(Nc2ccc(I)cc2F)c2c(=O)n(C[C@@H](O)CO)cnc21 [TAK-733] | -22.47% | 60.13% | -22.24% | 63.07% | – | – | – | – |
| CCS(=O)(=O)c1cccc(-c2cc(C(=O)NC3CCN(C)CC3)c(C)c3[nH]c4ncc(C)cc4c23)c1 [TAK-901] | -15.73% | 57.02% | -23.07% | 63.48% | – | – | – | – |
| Cc1cc(C(C)Nc2ccccc2)c2nc(N3CCOCC3)cc(=O)n2c1 (centres unmarked) [TGX-221] | -1.55% | 50.47% | 0.18% | 51.95% | – | – | – | – |
| CC/C(=C(\c1ccccc1)c1ccc(OCCN(C)C)cc1)c1ccccc1 [Tamoxifen citrate] | 67.86% | 18.41% | 59.34% | 22.61% | – | – | – | – |

| SMILES | Plate 1 (% inhibition) [1] | Plate 1 (% conversion) [2] | Plate 1-duplicate (% inhibition) [3] | Plate 1-duplicate (% conversion) [4] | Plate 1 (% conversion) | Plate 1-duplicate (% conversion) | Plate 1 (% inhibition) | Plate 1-duplicate (% inhibition) |
| --- | --- | --- | --- | --- | --- | --- | --- | --- |
| COc1cc2c(N3CCN(C(=O)Nc4ccc(OC(C)C)cc4)CC3)ncnc2cc1OCCCN1CCCCC1 [Tandutinib] | -11.71% | 55.16% | -8.54% | 56.28% | – | – | – | – |
| C[C@@H]1CCN(C(=O)CC#N)C[C@@H]1N(C)c1ncnc2[nH]ccc12 [Tasocitinib_Tofacitinib] | 9.63% | 45.30% | 6.13% | 49.00% | – | – | – | – |
| Cn1nnc2c(C(N)=O)ncn2c1=O [Temozolomide] | 5.12% | 47.38% | 8.46% | 47.85% | – | – | – | – |
| CO[C@H]1C[C@@H]2CC[C@@H](C)[C@@](O)(O2)C(=O)C(=O)N2CCCC[C@H]2C(=O)O[C@H]([C@H](C)C[C@@H]2CC[C@@H](OC(=O)C(C)(CO)CO)[C@H](OC)C2)CC(=O)[C@H](C)/C=C(\C)[C@@H](O)[C@@H](OC)C(=O)[C@H](C)C[C@H](C)/C=C/C=C/C=C/1C [Temsirolimus] | 35.77% | 33.23% | 28.92% | 37.70% | – | – | – | – |
| COc1cc([C@@H]2c3cc4c(cc3[C@@H](O[C@@H]3O[C@@H]5CO[C@@H](c6cccs6)O[C@H]5[C@H](O)[C@H]3O)[C@H]3COC(=O)[C@H]23)OCO4)cc(OC)c1O [Teniposide] | 10.91% | 44.71% | 6.57% | 48.78% | – | – | – | – |
| Cl.c1ccc(C2CN3CCSC3=N2)cc1 (centres unmarked) [Tetramisole HCl] | – | – | – | – | 46.13% | 48.14% | 7.83% | 7.87% |
| O=C1CCC(N2C(=O)c3ccccc3C2=O)C(=O)N1 (centres unmarked) [Thalidomide] | 3.16% | 48.29% | 1.43% | 51.33% | – | – | – | – |
| S=P(N1CC1)(N1CC1)N1CC1 [Thio-TEPA] | 17.81% | 41.53% | 7.73% | 48.21% | – | – | – | – |
| Nc1nc2nc[nH]c2c(=S)[nH]1 [Thioguanine] | 7.28% | 46.39% | 8.14% | 48.00% | – | – | – | – |
| Cn1cncc1[C@@](N)(c1ccc(Cl)cc1)c1ccc2c(c1)c(-c1cccc(Cl)c1)cc(=O)n2C [Tipifarnib (Zarnestra)] | -67.01% | 80.70% | -61.42% | 82.50% | – | – | – | – |
| CC[C@@]1(O)C(=O)OCc2c1cc1n(c2=O)Cc2cc3c(CN(C)C)c(O)ccc3nc2-1 [Topotecan hydrochloride] | 4.87% | 47.50% | 6.81% | 48.66% | – | – | – | – |
| CN(C)CCOc1ccc(/C(=C(/CCCl)c2ccccc2)c2ccccc2)cc1 [Toremifene citrate] | 75.12% | 15.06% | 75.95% | 14.37% | – | – | – | – |
| CC1=C(/C=C/C(C)=C/C=C/C(C)=C/C(=O)O)C(C)(C)CCC1 [Tretinoin] | 71.19% | 16.88% | 64.04% | 20.28% | – | – | – | – |
| C1CN1c1nc(N2CC2)nc(N2CC2)n1 [Triethylenemelamine] | – | – | – | – | 46.54% | 50.74% | 6.96% | 2.63% |
| O=c1[nH]c(=O)n([C@H]2C[C@H](O)[C@@H](CO)O2)cc1C(F)(F)F [Trifluridine] | 1.86% | 48.89% | -0.91% | 52.49% | – | – | – | – |
